Data reported in article PMC10298530, “Synthesis and Anticancer Activity of A-Ring-Modified Derivatives of Dihydrobetulin” (International Journal of Molecular Sciences, 2023).
“And” between values parts separate entries of the source, which are not always exact repeats. Equal entries are not always repeated. Where two headings read alike, the source gives them in different places.

Tests used:
[1] = tested on: HEpG2; assay: MTT cell viability assay, HEpG2; type: cell-based, human; details: for IC50: Homo sapiens
From the text: (§1) Blokhin National Medical Research Center of Oncology (the Ministry of Health of the Russian Federation, Moscow).

[2] = tested on: PC-3; assay: MTT cell viability assay, PC-3; type: cell-based, human; details: for IC50: Homo sapiens
From the text: as §1

[3] = tested on: HCT116; assay: MTT cell viability assay, HCT116; type: cell-based, human; details: for IC50: Homo sapiens, HCT-116
From the text: as §1

[4] = tested on: Active Caspase-3 in HBL-100/Dox cells; assay: Flow cytometric analysis of active caspase-3, HBL-100/Dox; type: cell-based, human; details: for gMIF, Active Caspase-3: 24 h
Procedure: The cells were detached with accutase (HiMedia Laboratories, Maharashtra, India) and then fixed with 70% ice cold ethanol followed by overnight incubation at 4 °C. The cells were washed twice with PBS, permeabilized using 0.1% Triton X-100 in PBS solution, and subsequently stained with 5 μL of the BD Horizon™ BV605 Rabbit Anti-Active Caspase-3 antibody (BD Biosciences, Franklin Lakes, NJ, USA). The cells were then washed, resuspended in PBS, and analyzed using a CytoFlex S flow cytometer (Beckman Coulter, Brea, CA, USA). Cell fluorescence was evaluated on a CytoFlex S flow cytometer (Beckman Coulter, Brea, CA, USA). The results were analyzed using FlowJo software (ver. X 10.0.7r2, FlowJo Software, San Jose, CA, USA) and represented as geometric mean fluorescence intensity (gMFI).

[5] = tested on: HBL-100/Dox cells; assay: ROS by H2DCFDA fluorescent staining, HBL-100/Dox; type: cell-based, human; details: MK 1.8 μM, 4 h
Procedure: The DNA marker, termed Hoechst 33342 Ready Flow Reagent, was used as a stock solution (Invitrogen, ThermoFisher Scientific, USA). The mitochondrial marker, LumiTracker Mito TMRE (tetramethylrhodamine, ethyl ester; Lumiprobe, Moscow, Russia), was dissolved in DMSO as 1.0 mM stock solution. The marker of reactive oxygen species, H2DCFDA (Lumiprobe, Moscow, Russia), was dissolved in DMSO as 100.0 μM stock solution. After incubation, the cells were incubated with FBS-free culture medium containing the dye mixture of Hoechst 33342 (final concentration 1.0 μM) and LumiTracker Mito TMRE (final concentration 1.0 μM), or H2DCFDA dye taken alone (final concentration 1.0 μM), for 30 min at 37 °C in darkness. Fluorescence, at 420 nm (Hoechst 33342), at 510 nm (TMRE), and at 575 nm (H2DCFDA), of the test cultures (including controls) was analyzed immediately using a fluorescence microscope CKX 53 (Olympus, Tokyo, Japan). The TMRE fluorescence intensity was quantified using Fiji (ImageJ).

[6] = tested on: MS; assay: MTT cell viability assay, MS; type: cell-based, human; details: for IC50: Homo sapiens;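 on IC50 (mean ± SD): MS is a melanocyte cell line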
From the text: as §1

[7] = tested on: HBL-100/Dox cells; assay: Annexin V-FITC/PI assay, HBL-100/Dox; type: cell-based, human; details: 16 h
Procedure: Briefly, after exposing the cells to the tested and control compounds for 16 h, the cells were detached with accutase (HiMedia Laboratories, Maharashtra, India) and washed with cold PBS. Then, the cells were re-suspended in 100 μL of 1 × Binding Buffer at concentration 1 × 10^6 cells/mL and incubated with 5 μL Annexin V-FITC and 5 μL propidium iodide (PI) for 15 min at room temperature in darkness. After incubation, 400 μL of 1 × Binding Buffer was added to each tube. The samples were analyzed by flow cytometry (CytoFlex S, Beckman Coulter, Brea, CA, USA) within 1 h of staining, and the findings were analyzed using a trial version of the Kaluza software (Beckman Coulter, Brea, CA, USA).

[8] = molecular target: T1, P-gp (Homo sapiens, UniProt P08183); assay: Rhodamine 123 efflux test (P-gp functional activity) in HBL-100/Dox cells; type: cell-based; details: Rh123 efflux, 60 min
T1 construct: endogenous in cells
Procedure: The functional activity of P-gp was evaluated using the previously described method. […] After incubation, the cells were washed twice and divided into several fractions (2.5 × 10^5 cells per point). One fraction was incubated in a pure medium, and the other one was incubated with MK (2.0 μM) added. […] Cell fluorescence was evaluated on CytoFlex S flow cytometer (Beckman Coulter, Brea, CA, USA). The results were analyzed using FlowJo software (ver. X 10.0.7r2, FlowJo Software, San Jose, CA, USA) and were represented as geometric mean fluorescence intensity (gMFI) and MAF coefficient, which were calculated using the following formula: MAF = (Mean (inh.) − Mean (free))/Mean (inh.), where MAF is the MDR activity functional, mean (free) is the mean value of cell fluorescence without inhibitor, and mean (inh.) is the mean value for cell fluorescence with inhibitor.

[9] = tested on: A549; assay: MTT cell viability assay, A549; type: cell-based, human; details: for IC50: Homo sapiens
From the text: as §1

[10] = tested on: HEK293; assay: MTT cell viability assay, HEK293; type: cell-based; details: Homo sapiens
From the text: as §1

[11] = tested on: MCF-7; assay: MTT cell viability assay, MCF-7; type: cell-based, human; details: for IC50: Homo sapiens, MCF7
From the text: as §1

T1 sequence (P08183 whole entry): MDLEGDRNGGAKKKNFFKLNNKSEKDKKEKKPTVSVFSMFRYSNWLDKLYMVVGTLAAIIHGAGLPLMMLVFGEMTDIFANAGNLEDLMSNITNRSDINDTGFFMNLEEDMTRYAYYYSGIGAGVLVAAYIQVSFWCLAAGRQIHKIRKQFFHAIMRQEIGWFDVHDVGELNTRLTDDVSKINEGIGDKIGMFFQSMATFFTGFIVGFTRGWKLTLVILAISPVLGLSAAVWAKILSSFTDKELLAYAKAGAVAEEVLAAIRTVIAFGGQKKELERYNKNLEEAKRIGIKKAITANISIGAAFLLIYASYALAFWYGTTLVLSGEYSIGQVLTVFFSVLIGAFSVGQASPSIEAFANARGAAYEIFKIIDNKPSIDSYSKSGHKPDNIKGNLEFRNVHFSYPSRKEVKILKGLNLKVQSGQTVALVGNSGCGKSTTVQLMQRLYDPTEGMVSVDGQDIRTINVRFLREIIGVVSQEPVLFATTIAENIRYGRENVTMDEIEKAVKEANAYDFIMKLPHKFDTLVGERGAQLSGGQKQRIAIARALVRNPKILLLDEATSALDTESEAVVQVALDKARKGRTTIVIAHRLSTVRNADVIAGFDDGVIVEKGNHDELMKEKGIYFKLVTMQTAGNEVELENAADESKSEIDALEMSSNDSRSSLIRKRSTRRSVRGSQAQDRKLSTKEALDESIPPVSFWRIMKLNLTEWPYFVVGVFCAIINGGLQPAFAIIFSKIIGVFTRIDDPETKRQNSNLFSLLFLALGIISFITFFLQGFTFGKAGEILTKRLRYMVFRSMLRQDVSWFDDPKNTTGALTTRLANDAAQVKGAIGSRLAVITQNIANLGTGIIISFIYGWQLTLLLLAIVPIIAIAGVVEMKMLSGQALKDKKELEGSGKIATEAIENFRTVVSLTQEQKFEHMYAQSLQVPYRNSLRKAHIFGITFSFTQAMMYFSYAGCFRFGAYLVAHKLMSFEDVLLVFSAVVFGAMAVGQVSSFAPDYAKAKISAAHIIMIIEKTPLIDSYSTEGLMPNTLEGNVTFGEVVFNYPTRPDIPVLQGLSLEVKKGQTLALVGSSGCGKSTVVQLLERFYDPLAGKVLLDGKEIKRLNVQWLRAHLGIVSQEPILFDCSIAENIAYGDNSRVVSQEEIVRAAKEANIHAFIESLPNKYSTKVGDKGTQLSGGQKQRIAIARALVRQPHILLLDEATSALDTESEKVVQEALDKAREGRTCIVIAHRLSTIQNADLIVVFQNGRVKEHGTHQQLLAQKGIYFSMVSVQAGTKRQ

In the case of `COC(=O)[C@]12CC[C@@H](C(C)C)[C@@H]1[C@H]1CC[C@@H]3[C@@](C)(CCC#N)[C@H](C(=O)C(Br)Br)CC[C@@]3(C)[C@]1(C)CC2` [compound 31, 2-Cyano-24,24-dibromo-4-oxo-3,4-seco-3,23-dinorlupan-28-oic acid methyl ester], the IC50 ([1]; HEpG2, MTT, 72 h of treatment, read-out: IC50 Values (Mean ± SD)) is reported as 16.6 ± 0.4 µM, the IC50 ([1]; Table S1, HEpG2, read-out: IC50 (mean ± SD)) is reported as 16.6 ± 0.41 µM and the “Selectivity index (SI)” value ([1]; ratio of IC50 values healthy (HEK293) / HEpG2) is reported as 0.69. For the same molecule, the IC50 ([2]; PC-3, MTT, 72 h of treatment, read-out: IC50 Values (Mean ± SD)) was 10.4 ± 1.3 µM, the IC50 ([2]; Table S1, PC-3, read-out: IC50 (mean ± SD)) was 10.3 ± 1.27 µM and the “Selectivity index (SI)” value ([2]; ratio of IC50 values healthy (HEK293) / PC-3) was 1.11. The IC50 ([3]; HCT116, MTT, 72 h of treatment, read-out: IC50 Values (Mean ± SD)) was 3.9 ± 0.1 µM, the IC50 ([3]; Table S1, HCT116, read-out: IC50 (mean ± SD)) was 3.86 ± 0.08 µM and the “Selectivity index (SI)” value ([3]; ratio of IC50 values healthy (HEK293) / HCT116) was 2.95. For the same molecule, the “gMIF, Active Caspase-3” value ([4]; dose 2×IC50) was 19252±347, the “gMIF, Active Caspase-3” value ([4]; dose IC50) was 13428±202 and the “caspase-3 activation in comparison to the HBL-100 cells” value ([4]; after 24 h of MK treatment) was “doubly pronounced”. For the same molecule, the “ROS generation, H2DCFDA staining” value [5] was “significantly heightened the ROS generation”, the IC50 ([6]; MS, MTT, 72 h of treatment, read-out: IC50 Values (Mean ± SD)) was 16.5 ± 1.5 µM and the IC50 ([6]; Table S1, MS, read-out: IC50 (mean ± SD)) was 16.5 ± 1.53 µM. For the same molecule, the “Selectivity index (SI)” value ([6]; ratio of IC50 values healthy (HEK293) / MS) was 0.70, the Dead cells ([7]; dose 2xIC50) was 4.59±0.45% and the Viable cells ([7]; dose 2xIC50) was 78.69 ± 1.29%. For the same molecule, the Early apoptotic cells ([7]; dose 2xIC50, listed as MK) was 5.50±0.44%, the Late apoptotic cells ([7]; dose 2xIC50, listed as MK) was 10.94 ± 0.81% and 10.94±0.82% and the Dead cells ([7]; dose IC50) was 2.52±0.08%. The Viable cells ([7]; dose IC50) was 87.82 ± 0.44%, the Early apoptotic cells ([7]; dose IC50, listed as MK) was 5.04 ± 0.51% and 5.04±0.52% and the Late apoptotic cells ([7]; dose IC50, listed as MK) was 4.74 ± 0.44% and 4.74±0.04%. The “P-gp inhibitory activity” value [8] was “extremely low P-gp inhibitory activity”, the “MAF (MDR activity functional)” value ([8]; MK 2 μM, verapamil 30 μM, listed as MK) was 0.22±0.1 and 0.22 and the IC50 ([9]; A549, MTT, 72 h of treatment, read-out: IC50 Values (Mean ± SD)) was 7 ± 0.2 µM. The IC50 ([9]; Table S1, A549, read-out: IC50 (mean ± SD)) was 7.01 ± 0.21 µM, the “Selectivity index (SI)” value ([9]; ratio of IC50 values healthy (HEK293) / A549) was 1.64 and the IC50 ([10]; HEK293, MTT, 72 h of treatment, read-out: IC50 Values (Mean ± SD)) was 11.5 ± 0.6 µM. It also gave an IC50 ([10]; Table S1, HEK293, read-out: IC50 (mean ± SD)) of 11.5 ± 0.56 µM, an IC50 ([11]; MCF-7, MTT, 72 h of treatment, read-out: IC50 Values (Mean ± SD)) of 7.1 ± 0.7 µM and an IC50 ([11]; Table S1, MCF-7, read-out: IC50 (mean ± SD)) of 7.06 ± 0.72 µM. For the same molecule, the “Selectivity index (SI)” value ([11]; ratio of IC50 values healthy (HEK293) / MCF-7) was 1.62.
